The values below come from patent publication US5726181A, “Formulations and compositions of poorly water soluble camptothecin derivatives” (BioNumerik Pharmaceuticals, Inc., priority 1995, dated 1998).

≈ marks a conversion by molar mass, not a printed value. Like-named read-outs stand apart in the source and are kept apart here.

The conditions of series [1]: lactone form, pH of 2 to 6; cited from earlier work.
Another series relates to topoisomerase II. The following applies: cited from earlier work.
A further series deals with DNA strand breaks. The conditions noted are these: cited from earlier work.
The test system of another series is human patients. The conditions noted are these: human, in vivo; cited from earlier work.
For series [2] the following is noted: greater than carboxylate form; cited from earlier work.
For series [3], the system named is advanced gastrointestinal cancer. The following applies: in vivo; cited from earlier work.
In series [4] the test system is topoisomerase I-DNA cleavable complex. The following applies: cited from earlier work.
Series [5] has as its system Topoisomerase I. The following applies: purified from human colon carcinoma cells; cited from earlier work.
For series [6], the system named is human patients with cancer. The following applies: Phase I and Phase II human trials; cited from earlier work.
The test system of a further series is L1210 cells. The conditions noted are these: cited from earlier work.
The conditions of series [7]: animals; cited from earlier work.
Series [8] has as its system Topoisomerase I. The conditions noted are these: purified from calf thymus; cited from earlier work.
In a further series the test system is mice. The following applies: more toxic than SCPT; cited from earlier work.
A short description of series [9]: Solubility of camptothecin in various solvents. It counts as physicochemical. The following applies: for solubility: read-out: Solubility, Concentration.

Take `CC[C@@]1(O)C(=O)OCc2c1cc1n(c2=O)Cc2cc3ccccc3nc2-1` [Camptothecin, camptothecin]: the Water solubility entry in series [1] was “less than 5 micrograms in one milliliter o”. Further, the “Effect on topoisomerase II” value with topoisomerase II is given as “no effect on topoisomerase II”. Also, in the series with DNA strand breaks, the “Protein-associated DNA single-strand breaks” value is given as “induces protein-associated DNA single-strand breaks”. For the same compound, the “Protein linkage of DNA strand breaks” value with DNA strand breaks (in vitro cells) was “Virtually all of the DNA strand breaks observed in vitro cells treated with camptothecin are protein linked”. For the same compound, the Renal excretion entry with human patients is “excreted unchanged by the kidneys”. Besides, the “Anti-tumor activity of lactone relative to carboxylate form” value in series [2] is listed as “greater than 10 fold”. Also, the “Clinical value in gastrointestinal cancer (conclusion)” value in series [3] was “a drug of protean and unpredictable toxicity that has no clinical value in the management of gastrointestinal cancer”. Besides, the “Stabilization of the topoisomerase I cleavable complex, reversibility” value in series [4] is recorded as “readily reversible”. The “Inhibition of topoisomerase I” value in the series with Topoisomerase I [5] and in the series on Topoisomerase I [8] was “inhibited” in each case. Moreover, in series [6], the “Toxicity in early trials” value is “unpredictable myelosuppression and hemorrhagic cystitis”. Moreover, in the series with L1210 cells, the “Protein-free DNA breaks” value is listed as “an increase in unexplained protein-free breaks”. Moreover, the Transport into bile result in series [7] is on record as “extremely active transport of camptothecin into bile”. In the series with mice, the “Toxicity of lactone form relative to SCPT” value is listed as 10 fold. In addition, the “Solubility, Concentration” value in [9] (N-Methyl-2-pyrrolidinone (NMP)) fell in the range of 15000 to 20000 µg/mL. Besides, the solubility in series [9] (benzyl alcohol, organic solvent or mixture, Benzyl alcohol) is 1670 µg/mL (≈ 4810 µM); in series [9] (dimethylacetamide, organic solvent or mixture, Dimethylacetamide), 5000 µg/mL (≈ 14400 µM); in series [9] (dimethylisosorbide, organic solvent or mixture, Dimethylisosorbide), 928 µg/mL (≈ 2660 µM); in series [9] (ethanol, organic solvent or mixture, Ethanol) it was 51 µg/mL (≈ 146 µM); in [9] (milli-q water), 0.2 µg/mL (≈ 0.574 µM); in series [9] (n-methyl-2-pyrrolidinone (nmp), organic solvent or mixture, N-Methyl-2-pyrrolidinone (NMP)), > 15000 µg/mL. Further, the solubility in [9] (peg 300, organic solvent or mixture, PEG 300) worked out at 706 µg/mL (≈ 2030 µM); in series [9] (propylene glycol, organic solvent or mixture, Propylene glycol), 281 µg/mL (≈ 807 µM).
